system: VCaP cells; assay: Cytotoxicity assessment (Cell-titer-glo cell viability), VCaP; conditions: read-out: VCaP (CC50); VCaP cells, 6 days of treatment, Cell-titer-glo, vs DMSO

Compound | CC50
CC1(C)C(NC(=O)c2ccc(-n3cc(CCNC(=O)C4CCN(c5ccc6nnn(C7CCC(=O)NC7=O)c(=O)c6c5)CC4)nn3)cc2)C(C)(C)C1Oc1ccc(C#N)c(Cl)c1 (stereo not drawn) [Example 154, N-(2-(1-(4-(((1r,3r)-3-(3-chloro-4-cyanophenoxy)-2,2,4,4-tetramethylcyclobutyl)carbamoyl)phenyl)-1H-1,2,3-triazol-4-yl)ethyl)-1-(3-(2,6-dioxopiperidin-3-yl)-4-oxo-3,4-dihydrobenzo[d][1,2,3]triazin-6-yl)piperidine-4-carboxamide] | 41.6 nM
CC1(C)[C@H](NC(=O)c2ccc(-n3cc(CNc4ccc5nnn(C6CCC(=O)NC6=O)c(=O)c5c4)nn3)cc2)C(C)(C)[C@H]1Oc1ccc(C#N)c(Cl)c1 (stereo partly drawn) [Example 149, N-((1r,3r)-3-(3-chloro-4-cyanophenoxy)-2,2,4,4-tetramethylcyclobutyl)-4-(4-(((3-(2,6-dioxopiperidin-3-yl)-4-oxo-3,4-dihydrobenzo[d][1,2,3]triazin-6-yl)amino)methyl)-1H-1,2,3-triazol-1-yl)benzamide] | > 10000 nM
CC1(C)C(NC(=O)c2ccc(CCN3CCN(CC4CCN(C(=O)C5CCN(c6ccc7nnn(C8CCC(=O)NC8=O)c(=O)c7c6)CC5)CC4)CC3)cc2)C(C)(C)C1Oc1ccc(C#N)c(Cl)c1 (stereo not drawn) [Example 108, N-((1r,3r)-3-(3-chloro-4-cyanophenoxy)-2,2,4,4-tetramethylcyclobutyl)-4-(2-(4-((1-(1-(3-(2,6-dioxopiperidin-3-yl)-4-oxo-3,4-dihydrobenzo[d][1,2,3]triazin-6-yl)piperidine-4-carbonyl)piperidin-4-yl)methyl)piperazin-1-yl)ethyl)benzamide] | 18.8 nM
CC1(C)C(NC(=O)c2ccc(C#CCC3CCN(CC4CCN(C(=O)C5CCN(c6ccc7nnn(C8CCC(=O)NC8=O)c(=O)c7c6)CC5)CC4)CC3)cc2)C(C)(C)C1Oc1ccc(C#N)c(Cl)c1 (stereo not drawn) [Example 116, N-((1r,3r)-3-(3-chloro-4-cyanophenoxy)-2,2,4,4-tetramethylcyclobutyl)-4-(3-(1-((1-(1-(3-(2,6-dioxopiperidin-3-yl)-4-oxo-3,4-dihydrobenzo[d][1,2,3]triazin-6-yl)piperidine-4-carbonyl)piperidin-4-yl)methyl)piperidin-4-yl)prop-1-yn-1-yl)benzamide] | 16.1 nM
CC1(C)C(NC(=O)c2ccc(-n3cc(CCNC(=O)C4CN(c5ccc6nnn(C7CCC(=O)NC7=O)c(=O)c6c5)C4)nn3)cc2)C(C)(C)C1Oc1ccc(C#N)c(Cl)c1 (stereo not drawn) [Example 155, N-(2-(1-(4-(((1r,3r)-3-(3-chloro-4-cyanophenoxy)-2,2,4,4-tetramethylcyclobutyl)carbamoyl)phenyl)-1H-1,2,3-triazol-4-yl)ethyl)-1-(3-(2,6-dioxopiperidin-3-yl)-4-oxo-3,4-dihydrobenzo[d][1,2,3]triazin-6-yl)azetidine-3-carboxamide] | 177 nM
CC1(C)C(NC(=O)c2ccc(C#CC3CCN(CC4CCN(C(=O)C5CCN(c6ccc7nnn(C8CCC(=O)NC8=O)c(=O)c7c6)CC5)CC4)CC3)nc2)C(C)(C)C1Oc1ccc(C#N)c(Cl)c1 (stereo not drawn) [Example 131, N-((1r,3r)-3-(3-chloro-4-cyanophenoxy)-2,2,4,4-tetramethylcyclobutyl)-6-((1-((1-(1-(3-(2,6-dioxopiperidin-3-yl)-4-oxo-3,4-dihydrobenzo[d][1,2,3]triazin-6-yl)piperidine-4-carbonyl)piperidin-4-yl)methyl)piperidin-4-yl)ethynyl)nicotinamide] | 18.5 nM
CC1(C)C(NC(=O)c2cnc(N3CCN(CC4CCN(C(=O)CNc5ccc6nnn(C7CCC(=O)NC7=O)c(=O)c6c5)CC4)CC3)nc2)C(C)(C)C1Oc1ccc(C#N)c(Cl)c1 (stereo not drawn) [Example 147, N-((1r,3r)-3-(3-chloro-4-cyanophenoxy)-2,2,4,4-tetramethylcyclobutyl)-2-(4-((1-((3-(2,6-dioxopiperidin-3-yl)-4-oxo-3,4-dihydrobenzo[d][1,2,3]triazin-6-yl)glycyl)piperidin-4-yl)methyl)piperazin-1-yl)pyrimidine-5-carboxamide] | ~10 nM
CC1(C)C(NC(=O)c2ccc(-n3cc(CN4CCN(C(=O)C5CN(c6ccc7nnn(C8CCC(=O)NC8=O)c(=O)c7c6)C5)CC4)nn3)cc2)C(C)(C)C1Oc1ccc(C#N)c(Cl)c1 (stereo not drawn) [Example 122, N-((1r,3r)-3-(3-chloro-4-cyanophenoxy)-2,2,4,4-tetramethylcyclobutyl)-4-(4-((4-(1-(3-(2,6-dioxopiperidin-3-yl)-4-oxo-3,4-dihydrobenzo[d][1,2,3]triazin-6-yl)azetidine-3-carbonyl)piperazin-1-yl)methyl)-1H-1,2,3-triazol-1-yl)benzamide] | 18 nM
CC1(C)C(NC(=O)c2ccc(C#CCC3CCN(CC4CCN(C(=O)COc5ccc6nnn(C7CCC(=O)NC7=O)c(=O)c6c5)CC4)CC3)cc2)C(C)(C)C1Oc1ccc(C#N)c(Cl)c1 (stereo not drawn) [Example 119, N-((1r,3r)-3-(3-chloro-4-cyanophenoxy)-2,2,4,4-tetramethylcyclobutyl)-4-(3-(1-((1-(2-((3-(2,6-dioxopiperidin-3-yl)-4-oxo-3,4-dihydrobenzo[d][1,2,3]triazin-6-yl)oxy)acetyl)piperidin-4-yl)methyl)piperidin-4-yl)prop-1-yn-1-yl)benzamide] | 36 nM
CC1(C)[C@H](NC(=O)c2ccc(CCN3CC4CN(c5ccc6nnn(C7CCC(=O)NC7=O)c(=O)c6c5)CC4C3)cc2)C(C)(C)[C@H]1Oc1ccc(C#N)c(Cl)c1 (stereo partly drawn) [Example 92, N-((1r,3r)-3-(3-chloro-4-cyanophenoxy)-2,2,4,4-tetramethylcyclobutyl)-4-(2-(5-(3-(2,6-dioxopiperidin-3-yl)-4-oxo-3,4-dihydrobenzo[d][1,2,3]triazin-6-yl)hexahydropyrrolo[3,4-c]pyrrol-2(1H)-yl)ethyl)benzamide] | > 10000 nM
CC1(C)C(NC(=O)c2ccc(-n3cc(CNC(=O)CNc4ccc5nnn(C6CCC(=O)NC6=O)c(=O)c5c4)nn3)cc2)C(C)(C)C1Oc1ccc(C#N)c(Cl)c1 (stereo not drawn) [Example 152, N-((1r,3r)-3-(3-chloro-4-cyanophenoxy)-2,2,4,4-tetramethylcyclobutyl)-4-(4-((2-((3-(2,6-dioxopiperidin-3-yl)-4-oxo-3,4-dihydrobenzo[d][1,2,3]triazin-6-yl)amino)acetamido)methyl)-1H-1,2,3-triazol-1-yl)benzamide] | 233 nM
CC1(C)C(NC(=O)c2ccc(CCN3CCN(CC4CCN(C(=O)C5CN(c6ccc7nnn(C8CCC(=O)NC8=O)c(=O)c7c6)C5)CC4)CC3)cc2)C(C)(C)C1Oc1ccc(C#N)c(Cl)c1 (stereo not drawn) [Example 109, N-((1r,3r)-3-(3-chloro-4-cyanophenoxy)-2,2,4,4-tetramethylcyclobutyl)-4-(2-(4-((1-(1-(3-(2,6-dioxopiperidin-3-yl)-4-oxo-3,4-dihydrobenzo[d][1,2,3]triazin-6-yl)azetidine-3-carbonyl)piperidin-4-yl)methyl)piperazin-1-yl)ethyl)benzamide] | 13 nM
CC1(C)C(NC(=O)c2ccc(-c3cnn(C4CCN(CC5CCN(C(=O)COc6ccc7nnn(C8CCC(=O)NC8=O)c(=O)c7c6)CC5)CC4)c3)cc2)C(C)(C)C1Oc1ccc(C#N)c(Cl)c1 (stereo not drawn) [Example 113, N-((1r,3r)-3-(3-chloro-4-cyanophenoxy)-2,2,4,4-tetramethylcyclobutyl)-4-(1-(1-((1-(2-((3-(2,6-dioxopiperidin-3-yl)-4-oxo-3,4-dihydrobenzo[d][1,2,3]triazin-6-yl)oxy)acetyl)piperidin-4-yl)methyl)piperidin-4-yl)-1H-pyrazol-4-yl)benzamide] | 30 nM
CC1(C)C(NC(=O)c2ccc(-n3cc(CCOCCOCCNC(=O)CNc4ccc5nnn(C6CCC(=O)NC6=O)c(=O)c5c4)nn3)cc2)C(C)(C)C1Oc1ccc(C#N)c(Cl)c1 (stereo not drawn) [Example 159, N-((1r,3r)-3-(3-chloro-4-cyanophenoxy)-2,2,4,4-tetramethylcyclobutyl)-4-(4-(2-(2-(2-(2-((3-(2,6-dioxopiperidin-3-yl)-4-oxo-3,4-dihydrobenzo[d][1,2,3]triazin-6-yl)amino)acetamido)ethoxy)ethoxy)ethyl)-1H-1,2,3-triazol-1-yl)benzamide] | 109 nM
CC1(C)C(NC(=O)c2ccc(-n3cc(CN4CCN(C(=O)C5CCN(c6ccc7nnn(C8CCC(=O)NC8=O)c(=O)c7c6)CC5)CC4)nn3)cc2)C(C)(C)C1Oc1ccc(C#N)c(Cl)c1 (stereo not drawn) [Example 121, N-((1r,3r)-3-(3-chloro-4-cyanophenoxy)-2,2,4,4-tetramethylcyclobutyl)-4-(4-((4-(1-(3-(2,6-dioxopiperidin-3-yl)-4-oxo-3,4-dihydrobenzo[d][1,2,3]triazin-6-yl)piperidine-4-carbonyl)piperazin-1-yl)methyl)-1H-1,2,3-triazol-1-yl)benzamide] | 18 nM
CC1(C)C(NC(=O)c2ccc(-n3cc(CC4CCN(C(=O)C5CCN(c6ccc7nnn(C8CCC(=O)NC8=O)c(=O)c7c6)CC5)CC4)nn3)cc2)C(C)(C)C1Oc1ccc(C#N)c(Cl)c1 (stereo not drawn) [Example 104, N-((1r,3r)-3-(3-chloro-4-cyanophenoxy)-2,2,4,4-tetramethylcyclobutyl)-4-(4-((1-(1-(3-(2,6-dioxopiperidin-3-yl)-4-oxo-3,4-dihydrobenzo[d][1,2,3]triazin-6-yl)piperidine-4-carbonyl)piperidin-4-yl)methyl)-1H-1,2,3-triazol-1-yl)benzamide] | 16.9 nM
CC1(C)C(NC(=O)c2ccc(-c3cnn(C4CCN(CC5CCN(C(=O)CNc6ccc7nnn(C8CCC(=O)NC8=O)c(=O)c7c6)CC5)CC4)c3)cc2)C(C)(C)C1Oc1ccc(C#N)c(Cl)c1 (stereo not drawn) [Example 112, N-((1r,3r)-3-(3-chloro-4-cyanophenoxy)-2,2,4,4-tetramethylcyclobutyl)-4-(1-(1-((1-((3-(2,6-dioxopiperidin-3-yl)-4-oxo-3,4-dihydrobenzo[d][1,2,3]triazin-6-yl)glycyl)piperidin-4-yl)methyl)piperidin-4-yl)-1H-pyrazol-4-yl)benzamide] | 16 nM
CC1(C)C(NC(=O)c2ccc(-c3cnn(C4CCN(CC5CCN(C(=O)C6CCN(c7ccc8nnn(C9CCC(=O)NC9=O)c(=O)c8c7)CC6)CC5)CC4)c3)nc2)C(C)(C)C1Oc1ccc(C#N)c(Cl)c1 (stereo not drawn) [Example 124, N-((1r,3r)-3-(3-chloro-4-cyanophenoxy)-2,2,4,4-tetramethylcyclobutyl)-6-(1-(1-((1-(1-(3-(2,6-dioxopiperidin-3-yl)-4-oxo-3,4-dihydrobenzo[d][1,2,3]triazin-6-yl)piperidine-4-carbonyl)piperidin-4-yl)methyl)piperidin-4-yl)-1H-pyrazol-4-yl)nicotinamide] | 13 nM

— patent publication US20240018123A1, “COMPOUND FOR INHIBITING OR DISINTEGRATING ANDROGEN RECEPTOR, AND PHARMACEUTICAL USE THEREOF” (KOREA RESEARCH INSTITUTE OF CHEMICAL TECHNOLOGY, priority 2020, published 2024)
